Assay results taken from patent US10087148B2, “Quinazolines as biogenic amine transport modulators” (THE UNITED STATES OF AMERICA AS REPRESENTED BY THE …, priority 2014, dated 2018).

Assays:
[1] = biological target: T1, dopamine transporter (DAT) (Rattus norvegicus (Rat), UniProt P23977); assay: [3H]dopamine (DA) uptake inhibition in rat brain (caudate) synaptosomes; format: biochemical
[2] = biological target: serotonin transporter (SERT) (Rattus norvegicus (Rat), UniProt P31652); assay: [3H]serotonin (5-HT) uptake inhibition in rat brain synaptosomes; format: biochemical; conditions: mean ± S.D., n = 3
serotonin transporter (SERT), sequence (P31652 whole entry): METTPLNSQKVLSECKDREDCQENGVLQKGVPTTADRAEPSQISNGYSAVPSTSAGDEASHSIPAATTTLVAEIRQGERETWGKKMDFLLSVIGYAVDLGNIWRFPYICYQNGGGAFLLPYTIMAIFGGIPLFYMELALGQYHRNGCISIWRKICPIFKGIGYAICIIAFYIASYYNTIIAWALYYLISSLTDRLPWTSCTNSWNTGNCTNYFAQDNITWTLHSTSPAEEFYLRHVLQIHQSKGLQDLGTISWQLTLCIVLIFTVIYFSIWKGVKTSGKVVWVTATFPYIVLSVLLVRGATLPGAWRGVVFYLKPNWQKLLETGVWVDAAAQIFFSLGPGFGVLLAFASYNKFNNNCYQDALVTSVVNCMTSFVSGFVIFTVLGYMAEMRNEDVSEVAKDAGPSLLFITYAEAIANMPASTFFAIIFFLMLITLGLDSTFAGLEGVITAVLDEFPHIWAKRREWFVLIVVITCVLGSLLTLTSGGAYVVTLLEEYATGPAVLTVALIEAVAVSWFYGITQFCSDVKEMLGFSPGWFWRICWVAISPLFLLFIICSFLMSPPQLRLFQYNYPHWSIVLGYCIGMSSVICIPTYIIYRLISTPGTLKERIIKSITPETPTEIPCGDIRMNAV

[3] = biological target: T1, dopamine transporter (DAT); assay: Dopamine transporter-mediated [3H]MPP+ release (d-amphetamine-induced, shift experiments) in rat caudate synaptosomes; format: biochemical; conditions: [3H]MPP+ release
[4] = biological target: norepinephrine transporter (NET) (Rattus norvegicus, UniProt Q63380); assay: [3H]norepinephrine (NE) uptake inhibition in rat brain synaptosomes; format: biochemical
norepinephrine transporter (NET), sequence (Q63380 1-617): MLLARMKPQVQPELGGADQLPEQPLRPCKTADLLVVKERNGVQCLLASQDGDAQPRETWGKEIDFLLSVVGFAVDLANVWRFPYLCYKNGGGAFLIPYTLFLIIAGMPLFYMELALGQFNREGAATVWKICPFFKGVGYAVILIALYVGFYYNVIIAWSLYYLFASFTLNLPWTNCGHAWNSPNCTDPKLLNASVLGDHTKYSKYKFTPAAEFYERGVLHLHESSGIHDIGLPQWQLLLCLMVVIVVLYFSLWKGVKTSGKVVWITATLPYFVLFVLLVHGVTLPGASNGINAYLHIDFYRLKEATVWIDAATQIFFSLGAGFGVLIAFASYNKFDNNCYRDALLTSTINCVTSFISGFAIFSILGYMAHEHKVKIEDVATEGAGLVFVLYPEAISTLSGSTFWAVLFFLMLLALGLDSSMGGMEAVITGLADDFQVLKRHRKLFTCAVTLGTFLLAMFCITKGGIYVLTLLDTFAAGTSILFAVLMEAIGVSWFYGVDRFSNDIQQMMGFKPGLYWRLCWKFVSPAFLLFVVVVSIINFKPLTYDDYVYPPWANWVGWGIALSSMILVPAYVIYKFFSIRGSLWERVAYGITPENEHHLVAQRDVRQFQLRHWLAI

DAT [5] = biological target: T2, DAT (Rattus norvegicus (Rat), UniProt P23977); assay: Inhibition of [3H]WIN35428 binding to rat caudate DAT; conditions: [3H]WIN35428, mean ± S.D., n = 3
T2 sequence (P23977 whole entry): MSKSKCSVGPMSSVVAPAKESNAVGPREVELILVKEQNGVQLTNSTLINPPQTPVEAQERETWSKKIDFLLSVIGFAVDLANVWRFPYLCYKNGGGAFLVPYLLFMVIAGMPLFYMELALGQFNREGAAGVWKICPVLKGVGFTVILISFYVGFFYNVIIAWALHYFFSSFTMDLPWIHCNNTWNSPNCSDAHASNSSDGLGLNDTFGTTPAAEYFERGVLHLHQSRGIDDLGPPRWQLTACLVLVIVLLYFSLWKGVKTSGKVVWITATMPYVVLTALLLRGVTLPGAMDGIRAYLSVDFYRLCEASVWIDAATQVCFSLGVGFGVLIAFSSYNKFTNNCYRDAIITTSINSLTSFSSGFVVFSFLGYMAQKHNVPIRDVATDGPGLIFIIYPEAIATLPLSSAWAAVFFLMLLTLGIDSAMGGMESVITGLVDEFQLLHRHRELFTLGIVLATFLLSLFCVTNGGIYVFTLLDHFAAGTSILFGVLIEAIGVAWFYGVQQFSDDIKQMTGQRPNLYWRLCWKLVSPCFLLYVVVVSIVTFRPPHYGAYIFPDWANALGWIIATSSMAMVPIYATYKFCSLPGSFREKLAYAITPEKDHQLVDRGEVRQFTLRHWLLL
Description: All of the test compounds were synthesized as described herein. […] The data from three experiments were pooled and fit to a dose-response curve equation (using KaleidaGraph; Synergy Software, Reading, Pa.) to yield an Emax and IC50 value. […] Selected compounds were also tested for their ability to inhibit [^3H]WIN35428 binding to rat caudate DAT.

DAT [6] = biological target: T2, DAT; assay: d-amphetamine-induced, DAT-mediated [3H]DA release (shift experiments); format: biochemical
[7] = [Blocker]/((EC50-2/EC50-1) − 1)
[8] = read-out: d-Amphetamine Emax in presence of blocker, blocker concentration per row, mean ± S.D., n = 3

T1 sequence (P23977 whole entry): as above

`c1ccc(C(CCNc2nc(-c3ccc4[nH]ccc4c3)nc3ccccc23)c2ccccc2)cc1` [SRI-29213] gave an IC50 ([1]; mean ± S.D., n = 3) of 16 ± 4 nM, an Emax ([1]; mean ± S.D., n = 3, read-out: DAT Uptake Emax) of 81 ± 3% and an Emax ([1]; values in Table 9, read-out: Emax for DAT Uptake Inhibition) of 81%. The IC50 [2] was 89 ± 51 nM, the Emax ([2]; read-out: SERT Uptake Emax) was 43 ± 4% and the “Apparent Kc” value [3, 7] was 886 nM. The Emax [3, 8] was 78 ± 2%, the Emax ([4]; read-out: NET Uptake Emax) was 77 ± 3% and the IC50 ([4]; read-out: NET Uptake IC50, mean ± S.D., n = 3) was 346 ± 59 nM. The Emax (DAT [5]) was 94 ± 2%, the IC50 (DAT [5]; unit as printed in head (text gives 1100 nM where table prints 1.1)) was 200 nM and the “Apparent Kc” value (DAT [6]; [7]) was 6.7 µM. For the same molecule, the Emax (DAT [6]; [8]) was 71 ± 3%.
